In patent publication US20080311126A1, “Antisense Oligonucleotides Directed to Ribonucleotide Reducatase R2 and Uses Thereof in Combination Therapies for the Treatment of Cancer” (Genesense Technologies, Inc, priority 2004, published 2008):
Entries after “also recorded” stand apart in the source; their conditions may differ.

Experiments:
[1] = test system: Human taxol-resistant promyelocytic leukaemia cells (HL-60); experiment: HL-60 taxol-resistant promyelocytic leukaemia xenograft in SCID mice; type: in vivo
Protocol: Human taxol-resistant promyelocytic leukaemia cells (HL-60) (7×10^6 cells in 100 μl of PBS) were injected into the right flank of 6-7 weeks old female SCID mice. After the size of tumour reached an approximate volume of 100 mm^3, 10 days post tumour cell injection, SEQ ID NO:1 was administered by bolus infusion into the tail vein every other day at 10 mg/kg. Control animals received saline alone for the same period. The anti-tumour effect of SEQ ID NO:1 was further compared to that of taxol. Taxol was administered i.p. once a week at a dose of 10 mg/kg. Anti-tumour activity was estimated by the inhibition of tumour volume, which was measured with caliper. Each point represents mean tumour volume calculated from 10 animals per experimental group. In addition animals were sacrificed and tumour weights taken at the end of the study.

[2] = test system: Human Liver Carcinoma; experiment: Tumour growth assay, human liver carcinoma in CD-1 nude mice; type: in vivo
[3] = test system: Human Breast Adenocarcinoma; experiment: Tumour growth assay, human breast adenocarcinoma in mice; type: in vivo
[4] = test system: Hela S3 cells; experiment: Relative colony forming efficiency, lipofectin +/- oligonucleotide 4 hours; type: cell-based, human; conditions: Hela S3 cervix carcinoma cells; averages of 2-8 determinations
Method in brief: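 Survival is given as percent of lipofectin-treated controls, scored as methylene blue-stained colonies after 7–10 days of regrowth. Beforehand, HeLa S3 cultures received a 4 h lipofectin-mediated pulse of oligonucleotide, normally at 0.2 μM.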

[5] = test system: Burkitt's Lymphoma; experiment: Survival assay, Burkitt's lymphoma in mice; type: in vivo, human
Protocol: For the study of the effect of the compositions on leukaemias, the animals are grafted with a particular number of cells, and the anti-tumour activity is determined by the increase in the survival time of the treated mice relative to the controls.

[6] = test system: LS513 multi-drug resistant colon carcinoma cells; experiment: LS513 multi-drug resistant colon carcinoma xenograft in SCID mice; type: in vivo, human
Protocol: LSS13 multi-drug resistant colon carcinoma cells (1×10^7 cells in 100 μl of PBS) were subcutaneously injected into the right flank of 6-7 weeks old female SCID mice. After the size of tumour reached an approximate volume of […], 8 days post tumour cell injection, SEQ ID NO:1 was administered by bolus infusion into the tail vein every other day at 10 mg/kg. Control animals received saline alone for the same period. Antitumour effect of SEQ ID NO:1 was further compared to that of CPT-11 alone or in combination. CPT-11 was administered i.p. for 5 days at a dose of 20 mg/kg/day. Antitumour activities were estimated by the inhibition of tumour volume, which was measured with caliper. Each point represents mean tumour volume calculated from 10 animals per experimental group. Tumour weights were measured after animals were sacrificed at the end of the treatment. These cells are not resistant to CPT-11 which was used as a positive control.

[7] = test system: SK-OV-3 human ovary adenocarcinoma cells; experiment: SK-OV-3 ovary tumour xenograft in CD-1 nude mice; type: in vivo
Protocol: SK-OV-3 human ovary adenocarcinoma cells (1×10^7 cells in 100 μl of PBS) were subcutaneously injected into the right flank of 6-7 weeks old female CD-1 nude mice. After the size of tumour reached an approximate volume of 100 mm^3, 6 days post tumour cell injection, SEQ ID NO:1 was administered by bolus infusion into the tail vein every other day at 10 mg/kg 17 times. Control animals received saline alone for the same period. Antitumour effect of SEQ ID NO: 1 was further compared to that of taxol or cisplatin alone or in combination. Taxol was administered intravenously once a week for first three weeks and intraperitoneally once a week for next two weeks at a dose of 10 mg/kg. Cisplatin was administered intravenously once a week for first three weeks and intraperitoneally once a week for next two weeks at a dose of 4 mg/kg. All treatments were stopped at day 40. Antitumour activities were estimated by the inhibition of tumour volume, which was measured with caliper. Each point represents mean tumour volume calculated from 9 animals per experimental group.

GGCTAAATCGCTCCACCAAG (chemistry not given here) [SEQ ID NO: 1, antisense oligonucleotide that hybridizes to the coding region of human ribonucleotide reductase R2 mRNA]
Tumour weight as % of saline control ([1]; HL-60 (leukemia), Taxol resistance, SCID): 38%
anti-tumour effect (tumour volume, tumour weight) ([1]; SEQ ID NO:1 10 mg/kg every other day, Taxol 10 mg/kg i.p. weekly): significant reduction of tumour weight
Inhibition of tumour weight [2]: approximately 65%
Inhibition of tumour weight ([3]; Day 31 after tumour implantation): approximately 80% on Day 31 after
Inhibition of tumour size ([3]; Human Breast Adenocarcinoma): approximately 80%
Reduced relative colony forming efficiency, Hela S3 (% inhibition of colony forming ability) [4]: 67.92%
effect of treatment on survival ([5]; first entry): Treatment prolonged survival
survival of treated mice ([5]; first entry, untreated died by day 23, one treated mouse died at day 69): Treated mice survived beyond day 73
effect of treatment on survival ([5]; second entry): Treatment prolonged survival
survival of all treated mice (end of the experimental period) ([5]; second entry, untreated died by day 20): the experimental period (140 days)
Tumour weight as % of saline control ([6]; LS513 (colon) multi-drug resistant (CPT-11 sensitive), SCID): 49%
antitumour effect (tumour volume, tumour weight) ([6]; SEQ ID NO:1 10 mg/kg every other day, CPT-11 20 mg/kg/day i.p. 5 days): significant delay of tumour growth; also recorded: as effective as CPT-11
antitumour effect (tumour volume) ([7]; SEQ ID NO:1 10 mg/kg 17 times, taxol 10 mg/kg, cisplatin 4 mg/kg once a week): significant delay of tumour growth
tumour volume data as percentage of saline control ([7]; SK-OV-3 (ovary), Mouse CD-1): 42%
